Target: T1, IKKε (Homo sapiens, UniProt Q14164)
T1 construct: His-tag; made in house; host or cells: Sf9 insect cells
T1 sequence (Q14164 1-716): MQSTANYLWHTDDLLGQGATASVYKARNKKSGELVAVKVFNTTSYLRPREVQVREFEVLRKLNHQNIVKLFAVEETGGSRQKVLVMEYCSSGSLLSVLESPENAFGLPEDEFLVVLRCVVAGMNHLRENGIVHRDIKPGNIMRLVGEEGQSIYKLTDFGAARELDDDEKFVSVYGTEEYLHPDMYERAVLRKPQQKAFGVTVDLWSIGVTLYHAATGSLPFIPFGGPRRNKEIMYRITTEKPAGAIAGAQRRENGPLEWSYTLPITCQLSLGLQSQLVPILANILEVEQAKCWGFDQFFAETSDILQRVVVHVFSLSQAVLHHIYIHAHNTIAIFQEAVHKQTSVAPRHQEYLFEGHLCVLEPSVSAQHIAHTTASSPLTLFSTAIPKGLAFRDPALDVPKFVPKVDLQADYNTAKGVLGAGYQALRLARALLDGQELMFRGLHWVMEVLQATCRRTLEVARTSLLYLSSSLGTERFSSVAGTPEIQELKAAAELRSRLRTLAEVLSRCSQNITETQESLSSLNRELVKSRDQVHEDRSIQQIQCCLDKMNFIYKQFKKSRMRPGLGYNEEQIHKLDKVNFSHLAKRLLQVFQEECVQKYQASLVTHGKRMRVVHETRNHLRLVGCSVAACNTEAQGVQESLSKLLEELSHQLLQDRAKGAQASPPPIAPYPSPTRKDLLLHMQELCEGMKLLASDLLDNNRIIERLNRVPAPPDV
Experiment: In-vitro IKKε kinase assay ([γ33]ATP filter-plate)
Type: biochemical
Details: text bins; read-out: IC50 for inhibition of the kinase activity of IKKε
Summary of the method: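 His-tagged IKKε and TBK1 from Sf9 cells were assayed with myelin basic protein or casein and [γ33]ATP at 2×Km ATP (32 μM for IKKε, 60 μM for TBK1). Enzyme was 0.1 or 0.015 μg/ml for IKKε and 0.1 or 0.02 μg/ml for TBK1 (normal/sensitized). Reactions ran 30-45 min, were filter-captured, scintillation-counted, and normalized to DMSO after background subtraction.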

Q: With N#Cc1cc(-c2ccnc(Nc3cccc(NC(=O)NCCO)c3)n2)ccc1OC1CCOCC1 [compound 622, 1-[3-({4-[3-Cyano-4-(tetrahydro-2H-pyran-4-yloxy)phenyl]pyrimidin-2-yl}amino)phenyl]-3-(2-hydroxyethyl)urea] as the compound, how does the IC50 read?
A: < 5 nM

Q: How did the IC50 turn out when COc1cc(Nc2nccc(-c3ccc(OC4CCN(C(=O)CO)C4)c(C#N)c3)n2)ccc1N1CCC(N2CCN(C)CC2)CC1 (centres unmarked) [compound 513, 2-{[1-(hydroxyacetyl)pyrrolidin-3-yl]oxy}-5-[2-({3-methoxy-4-[4-(4-methylpiperazin-1-yl)piperidin-1-yl]phenyl}amino)pyrimidin-4-yl]benzonitrile] was run?
A: 50 to 500 nM

Q: N#Cc1cc(-c2ccnc(Nc3ccc(N4CCOCC4)cc3)n2)ccc1OC1CCN(C(=O)[C@H](O)C(F)(F)F)CC1 [Example 57, 5-(2-{[4-(Morpholin-4-yl)phenyl]amino}pyrimidin-4-yl)-2-({1-[(2S)-3,3,3-trifluoro-2-hydroxypropanoyl]piperidin-4-yl}oxy)benzonitrile] was tested. Which IC50 did it give?
A: 5 to 50 nM

Q: For N#Cc1cc(-c2ccnc(Nc3ccc(N4CCOCC4)cc3)n2)ccc1SC1CCCCC1 [Example 137, 2-(cyclohexylsulfanyl)-5-(2-{[4-(morpholin-4-yl)phenyl]amino}pyrimidin-4-yl)benzonitrile], which IC50 is on record?
A: 50 to 500 nM

Q: N#Cc1cc(-c2ccnc(Nc3ccc(N4CCOCC4)cc3)n2)ccc1NC(=O)C(F)(F)C(F)F [compound 441, N-[2-Cyano-4-(2-{[4-(morpholin-4-yl)phenyl]amino}pyrimidin-4-yl)phenyl]-2,2,3,3-tetrafluoropropanamide] was tested. Which IC50 did it give?
A: 5 to 50 nM

Q: Which IC50 does the source give for COc1ccc(-c2ccnc(Nc3ccc(S(=O)(=O)NCCN(C)C)c(OC)c3)n2)cc1C#N [compound 384] here?
A: 5 to 50 nM

Q: Which IC50 does the source give for CC(C)(O)CNC(=O)Nc1cccc(Nc2nccc(-c3ccc(OC4CCOCC4)c(C#N)c3)n2)c1 [compound 649, 1-[3-({4-[3-Cyano-4-(tetrahydro-2H-pyran-4-yloxy)phenyl]pyrimidin-2-yl}amino)phenyl]-3-(2-hydroxy-2-methylpropyl)urea] here?
A: < 5 nM

Q: Which IC50 does the source give for CCN(CC)CCN(CC)C(=O)Cc1cccc(Nc2nccc(-c3ccc(NC(=O)C(C)C)c(C#N)c3)n2)c1 [compound 424, N-[2-cyano-4-(2-{[3-(2-{[2-(diethylamino)ethyl] (ethyl)amino}-2-oxoethyl)phenyl]amino}pyrimidin-4-yl)phenyl]-2-methylpropanamide] here?
A: 50 to 500 nM

Q: Which IC50 does the source give for N#Cc1cc(-c2ccnc(Nc3ccc(N4CCOCC4)cc3)n2)ccc1NC(=O)NC1CCC(O)CC1 (centres unmarked) [Example 46, 1-[2-cyano-4-(2-{[4-(morpholin-4-yl)phenyl]amino}pyrimidin-4-yl)phenyl]-3-(4-hydroxycyclohexyl) urea] here?
A: 50 to 500 nM

Q: How did the IC50 turn out when N#Cc1cc(-c2ccnc(Nc3ccc(-c4cccnc4)cc3)n2)ccc1OC1CCOCC1 [compound 550, 5-(2-{[4-(Pyridin-3-yl)phenyl]amino}pyrimidin-4-yl)-2-(tetrahydro-2H-pyran-4-yloxy)benzonitrile] was run?
A: < 5 nM

Q: For COc1ccc(-c2ccnc(Nc3cccc(NC(=O)NCCO)c3)n2)cc1C#N [compound 301, 1-(3-{[4-(3-Cyano-4-methoxyphenyl)pyrimidin-2-yl]amino}phenyl)-3-(2-hydroxyethyl)urea], which IC50 is on record?
A: 5 to 50 nM

Q: Which IC50 does the source give for COc1ccc(-c2ccnc(Nc3cc(CNCCO)c(OC)c(OC)c3)n2)cc1C#N [Example 173, 5-{2-[(3-{[(2-Hydroxyethyl)amino]methyl}-4,5-dimethoxyphenyl)amino]pyrimidin-4-yl}-2-methoxybenzonitrile] here?
A: 5 to 50 nM

Q: With N#Cc1cccc(-c2ccnc(Nc3cccc(Cl)c3)n2)c1 [compound 338, 3-{2-[(3-Chlorophenyl)amino]pyrimidin-4-yl}benzonitrile] as the compound, how does the IC50 read?
A: 50 to 500 nM

Q: For N#Cc1cc(-c2ccnc(Nc3ccc(N4CCOCC4)cc3)n2)ccc1NC(=O)C1CCOCC1 [Example 97, N-[2-cyano-4-(2-{[4-(morpholin-4-yl)phenyl]amino}pyrimidin-4-yl)phenyl]tetrahydro-2H-pyran-4-carboxamide], which IC50 is on record?
A: 50 to 500 nM

— patent publication US20150352108A1, “AMINO-PYRIMIDINE COMPOUNDS AS INHIBITORS OF TBK1 AND/OR IKK EPSILON” (Alzheimer's Institute of America, priority 2009, published 2015)
